Experimental data taken from the supplement of paper PMC10307832.

Legend:
Experiment in all cases: relative viability (nuclei count vs DMSO), 5 days (fraction); higher = more cells survive
[1] = compound: O=c1[nH]cc(F)c(=O)[nH]1 [5-Fluorouracil] + Cc1cc(Nc2cc(N3CCN(C)CC3)nc(Sc3ccc(NC(=O)C4CC4)cc3)n2)n[nH]1 [Tozasertib] (partner 0.1 µM)
Outline: (§1)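 The day after seeding in 1536-well plates, lung cancer cell lines were treated by pin tool with a single drug, or with a fixed anchor-drug dose together with five library-drug doses (not always all listed) in √10 steps. After 5 days, a combined fix-and-stain solution (final 0.05% Triton X-100, 1% formaldehyde, 1 ug/ml Hoechst) was added. Nuclei counted on 4× images gave relative viability as treated counts over vehicle counts, reported as the median of duplicate plates.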

[2] = compound: O=c1[nH]cc(F)c(=O)[nH]1 [5-Fluorouracil] + Cc1nc(NC(=O)N2CCC[C@H]2C(N)=O)sc1-c1ccnc(C(C)(C)C(F)(F)F)c1 [Alpelisib] (partner 2 µM)
Outline: as §1

5-Fluorouracil + OSI-027 = compound: O=c1[nH]cc(F)c(=O)[nH]1 [5-Fluorouracil] + COc1cccc2cc(-c3nc([C@H]4CC[C@H](C(=O)O)CC4)n4ncnc(N)c34)[nH]c12 [OSI-027] (partner 0.5 µM)
Outline: as §1

[3] = compound: O=c1[nH]cc(F)c(=O)[nH]1 [5-Fluorouracil] + C[C@@H](Oc1cc(-c2cnn(C3CCNCC3)c2)cnc1N)c1c(Cl)ccc(F)c1Cl [Crizotinib] (partner 1 µM)
Outline: as §1

[4] = compound: O=c1[nH]cc(F)c(=O)[nH]1 [5-Fluorouracil] + COc1cc2c(Oc3ccc(NC(=O)C4(C(=O)Nc5ccc(F)cc5)CC4)cc3F)ccnc2cc1OCCCN1CCOCC1 [Foretinib] (partner 0.25 µM)
Outline: as §1

| Cell Line | relative viability ([1]; first compound 0.02 µM) | relative viability ([1]; first compound 0.2 µM) | relative viability ([1]; first compound 0.6325 µM) | relative viability ([1]; first compound 2 µM) | relative viability ([2]; first compound 0.02 µM) | relative viability ([2]; first compound 0.2 µM) | relative viability ([2]; first compound 0.6325 µM) | relative viability ([2]; first compound 2 µM) | relative viability (5-Fluorouracil + OSI-027; first compound 0.02 µM) | relative viability (5-Fluorouracil + OSI-027; first compound 0.2 µM) | relative viability (5-Fluorouracil + OSI-027; first compound 0.6325 µM) | relative viability (5-Fluorouracil + OSI-027; first compound 2 µM) | relative viability ([3]; first compound 0.02 µM) | relative viability ([3]; first compound 0.2 µM) | relative viability ([3]; first compound 0.6325 µM) | relative viability ([3]; first compound 2 µM) | relative viability ([4]; first compound 0.02 µM) | relative viability ([4]; first compound 0.2 µM) | relative viability ([4]; first compound 0.6325 µM) | relative viability ([4]; first compound 2 µM) |
| --- | --- | --- | --- | --- | --- | --- | --- | --- | --- | --- | --- | --- | --- | --- | --- | --- | --- | --- | --- | --- |
| NCI-H650 | 0.765 | 0.384 | 0.309 | 0.257 | 0.915 | 0.644 | 0.523 | 0.397 | 0.493 | 0.357 | 0.362 | 0.267 | 0.61 | 0.589 | 0.46 | 0.421 | 0.976 | 0.617 | 0.356 | 0.308 |
| NCI-H661 | 0.365 | 0.355 | 0.342 | 0.319 | 0.598 | 1.12 | 0.597 | 0.612 | 0.674 | – | 0.661 | 0.691 | 0.973 | 1.11 | 1.05 | 1.02 | 1.03 | – | 1.02 | 0.972 |
| NCI-H727 | 0.659 | 0.646 | 0.691 | 0.571 | 0.545 | 0.582 | 0.641 | 0.577 | 0.639 | 0.651 | 0.647 | 0.574 | 1.07 | 1.05 | 0.891 | 0.703 | 0.791 | 0.79 | 0.903 | 0.656 |
| NCI-H838 | 0.267 | 0.251 | 0.243 | 0.183 | 0.874 | 0.882 | 0.484 | 0.29 | 0.42 | 0.373 | 0.252 | 0.209 | 0.873 | 0.809 | 0.498 | 0.297 | 1 | 1.06 | 0.523 | 0.317 |
| NCI-H1355 | 0.529 | 0.366 | 0.258 | 0.226 | 0.716 | 0.551 | 0.372 | 0.286 | 0.465 | 0.4 | 0.274 | 0.268 | 1.04 | 0.672 | 0.373 | 0.266 | 0.883 | 0.681 | 0.338 | 0.256 |
| NCI-H1437 | 0.34 | 0.259 | 0.191 | 0.139 | – | 0.226 | 0.171 | 0.111 | 0.495 | 0.23 | 0.205 | 0.188 | – | 0.257 | 0.2 | 0.155 | 0.687 | 0.359 | 0.273 | 0.225 |
| NCI-H1651 | 0.626 | 0.602 | 0.543 | 0.441 | 1.01 | 0.672 | 0.552 | 0.504 | 0.832 | 0.628 | 0.507 | 0.475 | 0.825 | 0.838 | 0.452 | 0.38 | 0.797 | 0.835 | 0.537 | 0.509 |
| NCI-H1666 | 0.672 | 0.446 | 0.4 | 0.399 | 0.823 | 0.442 | 0.35 | 0.306 | 0.869 | 0.551 | 0.488 | 0.508 | 0.94 | 0.406 | 0.366 | 0.344 | 0.969 | 0.672 | 0.466 | 0.405 |
